PubChem BioAssay (NCI)
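Cultured in 96-well plates, cells were exposed to test compound for 48 hours across five concentrations. TGI marks complete inhibition of growth.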

Experiments:
Experiment in all cases: NCI anticancer screen, dose series, 48 h
[1] = tested on: 786-0 renal
[2] = tested on: A498 renal
[3] = tested on: A549 NSCLC
[4] = tested on: ACHN renal
[5] = tested on: BT-549 breast
[6] = tested on: CAKI-1 renal
[7] = tested on: COLO 205 colon
[8] = tested on: DU-145 prostate
[9] = tested on: EKVX NSCLC
[10] = tested on: HCC-2998 colon
[11] = tested on: HCT-116 colon
[12] = tested on: HCT-15 colon
[13] = tested on: HL-60(TB) leukemia
[14] = tested on: HOP-62 NSCLC
[15] = tested on: HOP-92 NSCLC
[16] = tested on: HT29 colon
[17] = tested on: IGROV1 ovarian
[18] = tested on: K-562 leukemia
[19] = tested on: KM12 colon
[20] = tested on: LOX IMVI melanoma
[21] = tested on: M14 melanoma
[22] = tested on: MALME-3M melanoma
[23] = tested on: MCF7 breast
[24] = tested on: MDA-MB-231 breast
[25] = tested on: MDA-MB-435
[26] = tested on: MDA-N
[27] = tested on: MOLT-4 leukemia
[28] = tested on: NCI-H226 lung
[29] = tested on: NCI-H23 lung
[30] = tested on: NCI-H460 lung
[31] = tested on: NCI-H522 lung
[32] = tested on: NCI/ADR-RES ovarian
[33] = tested on: OVCAR-3 ovarian
[34] = tested on: OVCAR-5 ovarian
[35] = tested on: OVCAR-8 ovarian
[36] = tested on: PC-3 prostate
[37] = tested on: RPMI-8226 leukemia
[38] = tested on: RXF 393 renal
[39] = tested on: SF-268 CNS
[40] = tested on: SF-295 CNS
[41] = tested on: SF-539 CNS
[42] = tested on: SK-MEL-28 melanoma
[43] = tested on: SK-MEL-5 melanoma
[44] = tested on: SK-OV-3 ovarian
[45] = tested on: SN12C renal
[46] = tested on: SNB-19 CNS
[47] = tested on: SNB-75 CNS
[48] = tested on: SR leukemia
[49] = tested on: SW-620 colon
[50] = tested on: T-47D breast
[51] = tested on: TK-10 renal
[52] = tested on: U251 CNS
[53] = tested on: UACC-257 melanoma
[54] = tested on: UACC-62 melanoma
[55] = tested on: UO-31 renal
[56] = tested on: HS 578T breast
[57] = tested on: OVCAR-4 ovarian
[58] = tested on: SK-MEL-2 melanoma

With CCc1c(Cl)nc(Cl)nc1Cl as the molecule, how does the TGI [1] read?
The TGI was 3.71 µM.

And the TGI [2]?
The TGI was 16.8 µM.

And the TGI [3]?
The TGI was 13.7 µM.

What about the TGI [4] of the same molecule?
The TGI was 0.219 µM.

What about the TGI [5] of the same molecule?
The TGI was 0.133 µM.

And the TGI [6]?
Its TGI is 0.404 µM.

What about the TGI [7] of the same molecule?
Its TGI is 0.284 µM.

What about the TGI [8] of the same molecule?
Its TGI is 6.35 µM.

What about the TGI [9] of the same molecule?
Its TGI is 1.94 µM.

What about the TGI [10] of the same molecule?
The TGI was 0.774 µM.

What about the TGI [11] of the same molecule?
The TGI was 0.44 µM.

What about the TGI [12] of the same molecule?
The TGI was 0.601 µM.

And the TGI [13]?
The TGI was 0.674 µM.

And the TGI [14]?
The TGI was 5.81 µM.

And the TGI [15]?
Its TGI is 3 µM.

What about the TGI [16] of the same molecule?
Its TGI is 1.3 µM.

What about the TGI [17] of the same molecule?
Its TGI is 4.44 µM.

What about the TGI [18] of the same molecule?
The TGI was greater than 32 µM.

What about the TGI [19] of the same molecule?
The TGI was 4.16 µM.

What about the TGI [20] of the same molecule?
Its TGI is 1.54 µM.

What about the TGI [21] of the same molecule?
Its TGI is 0.99 µM.

And the TGI [22]?
The TGI was 0.718 µM.

What about the TGI [23] of the same molecule?
The TGI was 0.258 µM.

What about the TGI [24] of the same molecule?
The TGI was 2.81 µM.

And the TGI [25]?
Its TGI is 12.1 µM.

What about the TGI [26] of the same molecule?
Its TGI is 10.8 µM.

And the TGI [27]?
The TGI was 9.5 µM.

And the TGI [28]?
The TGI was 0.283 µM.

What about the TGI [29] of the same molecule?
The TGI was 2.06 µM.

What about the TGI [30] of the same molecule?
The TGI was 10.4 µM.

And the TGI [31]?
The TGI was 0.113 µM.

What about the TGI [32] of the same molecule?
Its TGI is 11.3 µM.

And the TGI [33]?
Its TGI is 0.374 µM.

And the TGI [34]?
The TGI was 1.3 µM.

What about the TGI [35] of the same molecule?
The TGI was 44.4 µM.

And the TGI [36]?
Its TGI is 4.06 µM.

And the TGI [37]?
Its TGI is 0.252 µM.

What about the TGI [38] of the same molecule?
The TGI was 0.968 µM.

What about the TGI [39] of the same molecule?
The TGI was 2.03 µM.

And the TGI [40]?
Its TGI is 5.84 µM.

What about the TGI [41] of the same molecule?
Its TGI is 1.77 µM.

And the TGI [42]?
The TGI was 5.54 µM.

What about the TGI [43] of the same molecule?
The TGI was 1.39 µM.

What about the TGI [44] of the same molecule?
The TGI was 12.3 µM.

What about the TGI [45] of the same molecule?
Its TGI is 1.39 µM.

What about the TGI [46] of the same molecule?
The TGI was 8.79 µM.

What about the TGI [47] of the same molecule?
The TGI was 4.21 µM.

What about the TGI [48] of the same molecule?
The TGI was greater than 100 µM.

What about the TGI [49] of the same molecule?
The TGI was 1.39 µM.

What about the TGI [50] of the same molecule?
The TGI was 1.7 µM.

What about the TGI [51] of the same molecule?
Its TGI is 4.77 µM.

And the TGI [52]?
The TGI was 0.92 µM.

And the TGI [53]?
The TGI was 2.79 µM.

And the TGI [54]?
Its TGI is 2.28 µM.

What about the TGI [55] of the same molecule?
Its TGI is 4.85 µM.

For O=C(OCC12CC3CC(CC(C3)C1)C2)c1ccc(NCc2cc(O)ccc2O)cc1, which TGI [1] is on record?
The TGI was 2.35 µM.

And the TGI [2]?
The TGI was 11.8 µM.

What about the TGI [3] of the same molecule?
The TGI was 12.6 µM.

And the TGI [4]?
Its TGI is 7.04 µM.

What about the TGI [5] of the same molecule?
The TGI was 1.25 µM.

And the TGI [6]?
Its TGI is 2.06 µM.

What about the TGI [7] of the same molecule?
Its TGI is 2.8 µM.

What about the TGI [8] of the same molecule?
Its TGI is 18.7 µM.

And the TGI [9]?
Its TGI is 9.26 µM.

And the TGI [10]?
Its TGI is 4.02 µM.

And the TGI [11]?
Its TGI is 10.3 µM.

What about the TGI [12] of the same molecule?
Its TGI is 5.75 µM.

What about the TGI [13] of the same molecule?
Its TGI is 15 µM.

What about the TGI [14] of the same molecule?
The TGI was 16 µM.

And the TGI [15]?
The TGI was 17.6 µM.

What about the TGI [56] of the same molecule?
The TGI was 12.1 µM.

And the TGI [16]?
The TGI was 14.6 µM.

And the TGI [17]?
Its TGI is 3.21 µM.

And the TGI [18]?
Its TGI is greater than 49.2 µM.

What about the TGI [19] of the same molecule?
The TGI was 4.52 µM.

What about the TGI [20] of the same molecule?
The TGI was 4.72 µM.

And the TGI [21]?
The TGI was 5.77 µM.

And the TGI [23]?
The TGI was 36.8 µM.

What about the TGI [24] of the same molecule?
Its TGI is 11.6 µM.

What about the TGI [25] of the same molecule?
Its TGI is 7.06 µM.

And the TGI [26]?
The TGI was 16.7 µM.

What about the TGI [28] of the same molecule?
The TGI was 6.71 µM.

And the TGI [29]?
Its TGI is 3.88 µM.

And the TGI [30]?
The TGI was 7.5 µM.

And the TGI [31]?
Its TGI is 0.854 µM.

What about the TGI [32] of the same molecule?
The TGI was 8.97 µM.

And the TGI [33]?
Its TGI is 1.67 µM.

What about the TGI [57] of the same molecule?
The TGI was 6.28 µM.

What about the TGI [34] of the same molecule?
Its TGI is 4.71 µM.

And the TGI [35]?
The TGI was 7.28 µM.

And the TGI [36]?
The TGI was 4.88 µM.

What about the TGI [37] of the same molecule?
The TGI was 1.68 µM.

And the TGI [38]?
The TGI was 3.03 µM.

And the TGI [39]?
The TGI was 20.5 µM.

What about the TGI [40] of the same molecule?
The TGI was 17.7 µM.

And the TGI [41]?
Its TGI is 1.93 µM.

And the TGI [58]?
The TGI was 8.12 µM.

And the TGI [42]?
Its TGI is 3.54 µM.

And the TGI [43]?
The TGI was 2.9 µM.

What about the TGI [44] of the same molecule?
Its TGI is 20.4 µM.

What about the TGI [45] of the same molecule?
Its TGI is 18.7 µM.

And the TGI [46]?
The TGI was 11 µM.

And the TGI [47]?
Its TGI is 7.23 µM.

And the TGI [49]?
Its TGI is greater than 25.7 µM.

And the TGI [50]?
The TGI was 2.06 µM.

What about the TGI [51] of the same molecule?
Its TGI is 4.83 µM.

What about the TGI [52] of the same molecule?
The TGI was 5.33 µM.

And the TGI [53]?
The TGI was 3.28 µM.

What about the TGI [54] of the same molecule?
The TGI was 3.93 µM.

What about the TGI [55] of the same molecule?
The TGI was 1.96 µM.
